Where a SMILES comes first, the peptide text is derived from it. The star is where a group is joined. Cbz = O=C(OCc1ccccc1)*
Tests used:
[1] = system: POLG; conditions: cited from earlier work; for inhibition of POLG activity in vitro: extent of inhibition varies widely
[2] = system: POLB mRNA in MSH2 deficient and proficient cells; test: POLB mRNA by qRT-PCR after H2O2; assay type: cell-based, human; conditions: 100 μM H202, RNA isolated after 15 mins
Description: Quantification of RNA expression was measured by real time RT-PCR. Total RNA was extracted from cells with Trizol (Invitrogen) according to manufacturer's instructions. Total RNA from patient biopsies was purified from 10 μm sections using the High Pure RNA Paraffin Kit (Roche Diagnostic Ltd). cDNA was synthesized using Omniscript Reverse Transcriptase System for RT-PCR (Qiagen) with oligo dT as per manufacturer's instructions. Assay-on-Demand primer/probe sets were purchased from Applied Biosystems (Foster City, Calif.). Real-Time qPCR was performed on the […] Fast Real-Time PCR System (Applied Biosystems), with endogenous control β-Actin. Standard curves were calculated for all reactions with serial dilutions of control Hec59+chr2 cells to calculate reaction efficiency. Gene expression was calculated relative to expression of β-Actin endogenous control, and adjusted relative to expression in control Hec59+chr2 cells. Samples were quantified in triplicate.

[3] = system: OGG1 expression in HeLa cells; test: Western blot for OGG1 expression; assay type: cell-based, human; conditions: POLB silenced cells; 50 μM MG132, lysates 18 hours later
Description: (§1) Cell pellets were lysed in 20 mmol/L Tris (pH 8), 200 mmol/L NaCl, 1 mmol/L EDTA, 0.5% (v/v) NP40, 10% (v/v) glycerol, and protease inhibitors. Immunoprecipitations were performed by incubating Protein G beads (Sigma), 1-2 mg of precleared cell lysate and anti-POLB antibody (ab3181, Abcam; dilution 1:100) overnight at 4° C. Beads were subsequently washed three times in cold lysis buffer, after which 2× loading buffer was added and the samples were boiled for 5 min before SDS-PAGE. For western blotting, lysates were electrophoresed on Novex precast gels (Invitrogen) and immunoblotted using the following antibodies: anti-MSH2 (Ab-1, Calbiochem), anti-POLB (ab3181, Abcam), anti-MLH1 (ab9144, Abcam), anti-POLG (Novus), anti-PCNA (SC7907, Santa-Cruz), anti-Cytochrome C (Pharmagen) anti-OGG1 (NB100-106, Novus biologicals), anti-CHIP (ab39559, Abcam) and anti-β-tubulin, (T4026, Sigma). This was followed by incubation with anti-IgG-horseradish peroxidase and chemiluminescent detection (SuperSignal West Pico Chemiluminescent Substrate, Pierce). Immunoblotting for (1-tubulin was used as a loading control.

[4] = system: Hec59 cells (MSH2 deficient); test: 8-OHdG ELISA on isolated DNA; assay type: cell-based, human; conditions: compound treatment for three days
Description: (§2) Genomic DNA was extracted using the Qiamp DNA isolation kit (Qiagen) and digested with nuclease P1. Mitochondrial and nuclear DNA was extracted using the mitochondrial DNA isolation kit (ab65321, Abcam). A commercially available ELISA kit from Cell Biolabs was used to determine levels of 8-OHdG in isolated DNA. The assays were performed according to the manufacturer's instructions. The 8-OHdG standard (0.078-20 ng/ml) or 10 μg DNA from siRNA transfected cells was incubated with a 8-OHdG monoclonal antibody in a microtiter plate precoated with 8-OHdG.
(§3) Addition of […] to replicate samples was followed by measurement of absorbance at 450 nm. Standard curves were calculated for all reactions with serial dilutions of 8-OHdG standard to calculate reaction efficiency. Samples were assayed in triplicate.

[5] = system: Hec59+chr2 cells (MSH2 proficient); test: 8-OHdG ELISA on isolated DNA; assay type: cell-based, human; conditions: compound treatment for three days
Description: as §2, §3

[6] = system: reactive oxygen species (ROS); conditions: VK3 at 30 μM; leading to apoptosis; cited from earlier work
[7] = system: Hec59 and Hec59+chr2 cells; test: High-throughput compound inhibitor screen, CellTitre Glo viability; assay type: cell-based, human; conditions: library of 1120 compounds; viability after six days
Description: (§4) Compound libraries were purchased from Prestwick Chemicals (Saffron Walden, Essex, UK). Validation experiments were carried out with Methotrexate (Biomol International L.P.) and Menadione and Partenolide (Prestwick chemicals). Cells were plated in 96-well plates. After 12 hr incubation, cells were exposed to compound or equimolar DMSO and re-treated every 48 hrs. Cell viability was measured six days later using the CellTitre Glo assay (Promega) according to the manufacturer's instructions. Validation of hit compounds was performed by clonogenic assays. Exponentially growing cells were seeded at various densities in six-well plates. Cells were treated with increasing concentrations of the compound. Cell medium was replaced every four days. After ten to fourteen days, cells were fixed in methanol, stained with crystal violet, and counted. The plating efficiencies were calculated as the number of colonies divided by the number of cells plated for each compound treatment. The surviving fraction (SF) for a given sample was calculated as the plating efficiencies for each compound treated cells divided by the plating efficiencies of DMSO treated cells.

[8] = system: POLβ expression in Hec59 and Hec59+chr2 cells; test: Western blot for POLβ expression; assay type: cell-based, human; conditions: 72 hours after treatment with methotrexate
Description: as §1
Transfected cell pellets were lysed in 20 mmol/L Tris (pH 8), 200 mmol/L NaCl, 1 mmol/LEDTA, 0.5% (v/v) NP40, 10% (v/v) glycerol, and protease inhibitors. […]

[9] = system: Hec59+chr2 cells; test: Clonogenic survival with methotrexate after MSH2 siRNA; assay type: cell-based, human; conditions: cells transfected with MSH2 siRNA vs siControl; continuous exposure 14 days
Description: (§5) For clonogenic assays, exponentially growing cells were seeded at various densities in six-well plates. Cells were transfected with siRNA as before. Cell medium was replaced every four days. After ten to fourteen days, cells were fixed in methanol, stained with crystal violet, and counted. The plating efficiencies were calculated as the number of colonies divided by the number of cells plated for each siRNA transfection. The surviving fraction (SF) for a given sample was calculated as the plating efficiencies for each siRNA transfection divided by the plating efficiencies of siControl siRNA transfected cells. All transfections were carried out in triplicate.
(§6) Compound libraries were purchased from Prestwick Chemicals (Saffron Walden, Essex, UK). […] Cell viability was measured six days later using the CellTitre Glo assay (Promega) according to the manufacturer's instructions. […] After ten to fourteen days, cells were fixed in methanol, stained with crystal violet, and counted. The plating efficiencies were calculated as the number of colonies divided by the number of cells plated for each compound treatment. The surviving fraction (SF) for a given sample was calculated as the plating efficiencies for each compound treated cells divided by the plating efficiencies of DMSO treated cells.

[10] = system: HeLa cells; test: as above; assay type: cell-based, human; conditions: cells transfected with MSH2 siRNA vs siControl; continuous exposure 14 days
Description: as §5, §6

[11] = system: Hec59 and Hec59+chr2 cells; test: Clonogenic assay with compounds; assay type: cell-based, human; conditions: folic acid added in concert with methotrexate; Hec59 MSH2 deficient cells; 14 days
Description: as §4

[12] = molecular target: POLB (Rattus norvegicus, UniProt P06766); conditions: read-out: IC50 as POLB inhibitor; cited from earlier work

## CC(Cn1cnc2c(N)ncnc21)OCP(=O)(O)OP(=O)(O)OP(=O)(O)O (stereo in doubt) [tenofovir-DP]
[1]
  inhibition of POLG activity in vitro: inhibit POLG activity in vitro

## OO [H202]
[2]
  POLB mRNA levels: induced

## Nc1ccn([C@@H]2CS[C@H](COP(=O)(O)OP(=O)(O)OP(=O)(O)O)O2)c(=O)n1 [Lamivudine-TP]
[1]
  inhibition of POLG activity in vitro: inhibit POLG activity in vitro

## CC(C)C[C@@H](C=O)NC(=O)[C@H](CC(C)C)NC(=O)[C@H](CC(C)C)NC(=O)OCc1ccccc1 [MG132] (Cbz-Leu-Leu-Leu-aldehyde)
[3]
  OGG1 expression: restored the expression of OGG1

## CC1=CC(=O)c2ccccc2C1=O [Menadione, 2-methylnaphthalene-1,4-dione]
[4]
  8-OHdG accumulation: increased significantly
[5]
  8-OHdG accumulation: did not increase
[1]; VK3 at 30 μM
  inhibition of POLG: more than 80%
[6]
  reactive oxygen species (ROS): significant increase
[7]
  selectivity for MSH2 deficient cells in high-throughput screen: show selectivity for MSH2 deficient cells

## CN(Cc1cnc2nc(N)nc(N)c2n1)c1ccc(C(=O)N[C@@H](CCC(=O)O)C(=O)O)cc1 [Methotrexate, (S)-2-(4-(((2,4-diaminopteridin-6-yl)methyl)methylamino)benzamido)pentanedioic acid]
[8]
  POLβ expression: reduction of POLβ expression
[9]
  synthetic lethality with methotrexate (survival): synthetically lethal
[10]
  synthetic lethality with methotrexate (survival): synthetically lethal
[4]
  8-OHdG accumulation: increased significantly
[5]
  8-OHdG accumulation: did not increase
[7]
  selectivity for MSH2 deficient cells in high-throughput screen: show selectivity for MSH2 deficient cells

## Nc1ncnc2c1ncn2CCOCP(=O)(O)OP(=O)(O)OP(=O)(O)O [adefovir-diphosphate]
[1]
  inhibition of POLG activity in vitro: inhibit POLG activity in vitro

## Nc1nc2ncc(CNc3ccc(C(=O)N[C@@H](CCC(=O)O)C(=O)O)cc3)nc2c(=O)[nH]1 [folic acid]
[11]
  rescue of methotrexate lethality: in large part rescues the lethal phenotype

## C/C(=C/CC[C@H](C)[C@@H]1CC[C@]2(C)C3=CC[C@H]4C(C)(C)C(=O)CC[C@]4(C)[C@H]3CC[C@@]12C)C(=O)O [masticadienonic acid]
[12]
  IC50: 8 µM

## Nc1ccn([C@H]2CC[C@@H](COP(=O)(O)OP(=O)(O)OP(=O)(O)O)O2)c(=O)n1 [zalcitabine-TP]
[1]
  inhibition of POLG activity in vitro: inhibit POLG activity in vitro

## Cc1cn([C@H]2C[C@H](N=[N+]=[N-])[C@@H](COP(=O)(O)OP(=O)(O)OP(=O)(O)O)O2)c(=O)[nH]c1=O [zidovudine-TP]
[1]
  inhibition of POLG activity in vitro: inhibit POLG activity in vitro
